Measurements as given in US20180142206A1, “REVERSION OF PRIMED PLURIPOTENT STEM CELLS TO NAIVE PLURIPOTENT STEM CELLS” (The J. David Gladstone Institutes, A Testamentary Trust …, priority 2015, published 2018).

Key:
Xi-GFP mEpiSCs [1] = assay: Flow cytometric analysis of GFP and CD31 expression in Xi-GFP mEpiSCs; format: cell-based, mouse; conditions: for LIF induced Xi-reactivation (GFP/CD31 double positive cells): LIF-containing mEpiSC medium with or without Activin A and bFGF; for % of GFP/CD31 double positive cells compared with LIF alone: added to N2B27 medium containing LIF
Experimental: To more quantitatively assess the proportion of GFP positive cells under these three culture conditions, Fluorescence Activated Cell Sorting (FACS) was employed. For flow cytometric analyses, Xi-GFP mEpiSCs were dissociated into single cell suspensions with Accutase. The single cells were stained with a CD31 (PECAM) antibody (Clone MEC13.3/BD Bioscience (Franklin Lakes, N.J., USA)) conjugated with allophycocyanin, or APC. The stained cells were analyzed using MACSQuant VYB (Miltenyi Biotec, San Diego, Calif., USA) and FlowJo (FlowJo LLC, Ashland, Oreg., USA) software. […] In the LIF+2i and SNL-CM, the GFP^+ populations were also CD31^+, a marker for mouse naïve pluripotent stem cells (FIG. 1, panel C).
Xi-GFP mEpiSCs were dissociated with Accutase into single cell suspensions, and the single cells were seeded on a fibronectin-coated plate in the Activin A and bFGF-containing medium with two different cell densities (20,000 cells or 3,000 cells/well of a 6-well plate) one day before starting conversion experiments. Twenty-four hours after the seeding, fresh primed media was replenished as a negative control or changed to naïve medium. Assay medium was changed every 24 hours and GFP fluorescent was checked daily by microscopic inspection for eight (with 20,000 starting cells) to 13 days (with 3,000 starting cells).
The naïve media contained 1,000 units LIF (Millipore), 10 ng/ml BMP4 (R&D systems), 64 μg/ml L-ascorbic acid 2-phosphate (Sigma), 10 nM to 100 nM LPA (Avanti Polar Lipids (Alabaster, Ala., USA)), and/or 100 nM OMPT (Avanti Polar Lipids (Alabaster, Ala., USA)) in N2B27 basal medium purchased from StemCells Inc (Palo Alto, Calif., USA) or prepared in house for use in FIGS. 4 and 5. The in house N2B27 medium consists of 500 ml DMEM/F12+GlutaMax (Life Technologies (Carlsbad, Calif., USA), 500 ml Neurobasal medium (Life Technologies (Carlsbad, Calif., USA)), 5 ml N2 supplement (Life Technologies (Carlsbad, Calif., USA)), 10 ml B27 supplement (Life Technologies (Carlsbad, Calif., USA)), 666 μl 7.5% BSA Fraction V (Life Technologies (Carlsbad, Calif., USA)) and 5 ml GlutaMax (Life Technologies (Carlsbad, Calif., USA)/1 liter. At the end of the conversion experiments, the conversion efficiencies were evaluated by counting GFP^+ cell clusters or by flow cytometer.

hiPSCs [2] = assay: Reversion of primed integration-free hiPSCs in lipid containing reversion media; format: cell-based, human
Experimental: Human iPSCs were generated with episomal vectors expressing Oct4, Sox2, Klf4, myc, Lin28 and shRNA against […] using the methods described by Okita et al. (2011) Nature Methods 8(5):409-412. The hiPSCs were grown in primed media containing bFGF and TGF-β in StemFit basal medium (or mTeSR orE8). Primed hiPSCs were then switched to reversion media and cultured on laminin-511 under hypoxic conditions. The reversion media contained 10 ng/mL LIF, 10 ng/mL Activin A, 100 ng/mL bFGF, 1 μM PD0325901 MEK inhibitor, 1 μM CHIR99021 GSK3β inhibitor, and 2 mM N-acetyl cysteine in StemFit basal medium with various concentrations of lipids (2 μM OMPT, 1 μM OMPT, 1 μM OMPT+20 nM LPA, or no lipids). After 5 to 7 days, three-dimensional dome shaped colonies, characteristic of naïve pluripotent stem cells, were observed. […] The naïve cells also expressed NANOG, KLF4, KLF17 and TFCP2L1, markers for naïve human pluripotent stem cells (FIG. 9).

hiPSCs [3] = assay: Reversion of primed hiPSCs containing episomal reprogramming factors in reversion media; format: cell-based, human; conditions: for conversion to cells with features of naïve pluripotency (dome shaped colonies): 1 μM OMPT, 10 ng/mL LIF in StemFit, no bFGF, TGF-β, laminin-511
Source text: These naive-like cells formed three-dimensional dome shaped colonies characteristic of naïve pluripotent stem cells and very different from the colony morphology of primed hiPSCs. […] In addition, they provide the basis for further investigation of whether modulating the LPA-LPAR-RHO signaling axis can be used to generate and maintain human naïve pluripotent stem cells.

[4] = test system: primed pluripotent stem cells; assay: Cell morphology/toxicity of primed PSCs grown in various concentrations of LPA or OMPT
Experimental: To optimize the concentration of LPA and OMPT, primed pluripotent stem cells were grown in various concentrations of LPA or OMPT.

Xi-GFP mEpiSCs [5] = assay: Xi-reactivation in Xi-GFP mEpiSC reporter line, GFP positive clusters by fluorescence microscopy; format: cell-based, mouse; conditions: exogenous addition to SNL-CM and non-CM+LIF
Experimental: During somatic cell reprogramming the human Xi is reliably reactivated in hiPSCs reprogrammed on SNL feeder cells. […] It was first determined whether the culture conditions that promoted reactivation of the Xi during reprogramming also promoted Xi-reactivation of mouse EpiSCs, which are XaXi. Results of culturing an X-GFP mEpiSC reporter line, in which the green fluorescent protein (GFP) gene is located on the X-chromosome in different media were assayed by fluorescence microscopy. Gillich et al., (2012) Cell Stem Cell 10(4):[…], Bao et al., (2009) Nature 461(7268):1292-1295. Xi-GFP mEpiSCs were kindly provided by Drs. Azim Surani and Siqin Bao and were routinely maintained on a fibronectin (Sigma, St. Louis, Mo., USA)-coated plate (feeder free condition) in N2B27 basal medium (Ndiff 227 medium from StemCells Inc (Palo Alto, Calif., USA) and later from Clontech (Mountain View, Calif., USA) supplemented with 20 ng/ml Activin A (R&D systems (Minneapolis, Minn., USA)) and 12 ng/ml bFGF (Millipore (Billerica, Mass., USA)). Cells were passaged every two to three days at a 1:20 dilution from a previous culture after detached/scraped and dissociated with Accutase (Millipore (Billerica, Mass., USA)).
Cells remain GFP negative when cultured under feeder-free mEpiSC conditions, N2B27 medium containing Activin A and bFGF on fibronectin coated plates (FIG. 1, panels A and B). […]

Molecule: bFGF: basic fibroblast growth factor
- LIF induced Xi-reactivation (GFP/CD31 double positive cells) (Xi-GFP mEpiSCs [1]): negative effects

Molecule: O=C1O[C@H]([C@@H](O)CO)C(O)=C1O [ascorbic acid]
- % of GFP/CD31 double positive cells compared with LIF alone (Xi-GFP mEpiSCs [1]): increased

Molecule: Cc1noc(-c2ccc(CSCCC(=O)O)cc2)c1NC(=O)OC(C)c1ccccc1Cl (stereo not shown) [Ki16425]
- % of GFP^+ cells (Xi-GFP mEpiSCs [1]; added to medium containing LIF+LPA or LIF alone): significantly reduces

Molecule: CCCCCCCC/C=C\CCCCCCCC(=O)OC[C@H](COP(O)(O)=S)OC [OMPT, 1-oleoyl-2-methyl-sn-glycero-3-phosphothioate]
- time for which three-dimensional dome shaped colonies were maintained (hiPSCs [2]; 2 μM or 1 μM OMPT, or 1 μM OMPT+20 nM LPA, laminin-511, hypoxic, approximately five passages): more than one month
- conversion of hiPSCs to cells with characteristics of naïve PSCs (colony morphology) (hiPSCs [2]; compared to control media containing no lipids, FIG. 7): converts the hiPSCs to cells with characteristics of naïve PSCs
- conversion to cells with features of naïve pluripotency (dome shaped colonies) (hiPSCs [3]): cells with features of naïve pluripotency were observed

Molecule: lysophosphatidic acid [LPA]
- toxicity to primed pluripotent stem cells ([4]; 50 nM and 100 nM): toxic
- concentration at which cell toxicities were observed ([4]; FIG. 8): ≥ 0.01 µM
- induction of GFP^+ cells (Xi-GFP mEpiSCs [1]; N2B27, without LIF): induced GFP^+ cells, albeit less efficiently than with LIF
- conversion to cells with features of naïve pluripotency (dome shaped colonies) (hiPSCs [3]): converted to cells with characteristics of naïve PSCs
- NANOG expression of naive-like cells (hiPSCs [3]; antibody staining, FIG. 6): continue to express NANOG

Molecule: NC(=O)c1ccc(-c2nc(-c3ccc4c(c3)OCO4)c(-c3ccccn3)[nH]2)cc1 [SB431542]
- % of GFP/CD31 double positive cells (Xi-GFP mEpiSCs [1]; added to MEF-CM containing LIF): enhances induction of the double positive cells

B1: Activin A: cytokine required for maintaining primed pluripotency in mEpiSCs (protein, UniProt Q04998 309-424, looked up)
Inhibin beta A chain: GLECDGKVNICCKKQFFVSFKDIGWNDWIIAPSGYHANYCEGECPSHIAGTSGSSLSFHSTVINHYRMRGHSPFANLKSCCVPTKLRPMSMLYYDDGQNIIKKDIQNMIVEECGCS
modifications: Inhibin beta A chain
- numbers of GFP+ clusters (Xi-GFP mEpiSCs [5]): significantly reduced
- LIF induced Xi-reactivation (GFP/CD31 double positive cells) (Xi-GFP mEpiSCs [1]): negative effects

B2: BMP4: bone morphogenetic protein (protein, UniProt P12644 293-408, looked up)
Bone morphogenetic protein 4: SPKHHSQRARKKNKNCRRHSLYVDFSDVGWNDWIVAPPGYQAFYCHGDCPFPLADHLNSTNHAIVQTLVNSVNSSIPKACCVPTELSAISMLYLDEYDKVVLKNYQEMVVEGCGCR
- % of GFP/CD31 double positive cells compared with LIF alone (Xi-GFP mEpiSCs [1]): dramatically increased
- GFP/CD31 double positive cells (Xi-GFP mEpiSCs [1]; alone in N2B27 basal medium (without bFGF or Activin A), data not shown): did not induce GFP/CD31 double positive cells
